According to PubChem BioAssay AID1259407 (Chemical Carcinogenesis Research Information System (CCRIS), 2018):
Activity calls are given as the source filed them. How the calls were made is not given here.

Tested on: CCRIS mutagenicity, Ames/micronucleus/aberration tests
Assay: CCRIS mutagenicity studies
[1] = Test System: AMES SALMONELLA TYPHIMURIUM, Strain/Indicator: TA100, Metabolic Activation: NONE, Method: STANDARD PLATE
[2] = Test System: AMES SALMONELLA TYPHIMURIUM, Strain/Indicator: TA98, Metabolic Activation: NONE, Method: STANDARD PLATE
[3] = Test System: E. COLI WP2, Strain/Indicator: WP2, Metabolic Activation: NONE, Method: STANDARD PLATE

CC(O)CBr (stereo unspecified)
mutagenic call (Test System: AMES SALMONELLA TYPHIMURIUM, Strain/Indicator: TA97, Metabolic Activation: HAMSTER, LIVER, S-9, AROCLOR 1254 (10%), Method: PREINCUBATION): inactive; negative | mutagenic call (Test System: AMES SALMONELLA TYPHIMURIUM, Strain/Indicator: TA97, Metabolic Activation: NONE, Method: PREINCUBATION): inactive; negative | mutagenic call (Test System: AMES SALMONELLA TYPHIMURIUM, Strain/Indicator: TA97, Metabolic Activation: RAT, LIVER, S-9, AROCLOR 1254 (10%), Method: PREINCUBATION): inactive; negative | mutagenic call (Test System: AMES SALMONELLA TYPHIMURIUM, Strain/Indicator: TA98, Metabolic Activation: HAMSTER, LIVER, S-9, AROCLOR 1254 (10%), Method: PREINCUBATION): inactive; negative | mutagenic call (Test System: AMES SALMONELLA TYPHIMURIUM, Strain/Indicator: TA98, Metabolic Activation: RAT, LIVER, S-9, AROCLOR 1254 (10%), Method: PREINCUBATION): inactive; negative | mutagenic call (Test System: AMES SALMONELLA TYPHIMURIUM, Strain/Indicator: TA100, Metabolic Activation: HAMSTER, LIVER, S-9, AROCLOR 1254 (10%), Method: PREINCUBATION): inactive; negative | mutagenic call (Test System: AMES SALMONELLA TYPHIMURIUM, Strain/Indicator: TA100, Metabolic Activation: NONE, Method: PREINCUBATION): active; positive | mutagenic call (Test System: AMES SALMONELLA TYPHIMURIUM, Strain/Indicator: TA100, Metabolic Activation: RAT, LIVER, S-9, AROCLOR 1254 (10%), Method: PREINCUBATION): active; positive | mutagenic call (Test System: AMES SALMONELLA TYPHIMURIUM, Strain/Indicator: TA1535, Metabolic Activation: HAMSTER, LIVER, S-9, AROCLOR 1254 (10%), Method: PREINCUBATION): active; positive | mutagenic call (Test System: AMES SALMONELLA TYPHIMURIUM, Strain/Indicator: TA1535, Metabolic Activation: NONE, Method: PREINCUBATION): active; positive | mutagenic call (Test System: AMES SALMONELLA TYPHIMURIUM, Strain/Indicator: TA1535, Metabolic Activation: RAT, LIVER, S-9, AROCLOR 1254 (10%), Method: PREINCUBATION): active; positive

O=[N+]([O-])c1ccc(OC[C@@H]2CO2)cc1
mutagenic call [1]: active; positive

CC(C)(c1ccc(O)cc1)c1ccc(O)cc1 (tested in a mixture with another compound)
mutagenic call (End Point: IN VITRO CHROMOSOMAL ABERRATIONS, Test System: CHL CELLS, Metabolic Activation: NONE): active; positive (structural changes) | mutagenic call (End Point: IN VITRO CHROMOSOMAL ABERRATIONS, Test System: CHL CELLS, Metabolic Activation: RAT, LIVER, S-9, SODIUM PHENOBARBITAL AND 5,6-BENZOFLAVONE): inactive; negative; authors report equivocal results for structural changes at 0.63 and 1.

CCN(CC)CCNC(=O)c1ccc(N)cc1
mutagenic call (Test System: CHINESE HAMSTER V-79, Strain/Indicator: V-79 (HGPRT)/6-THIOGUANINE, Metabolic Activation: NONE): inactive; negative | mutagenic call (Test System: UDS HUMAN HEPATOCYTES, Strain/Indicator: THY INCORP, Metabolic Activation: NONE, Method: AUTORADIOGRAPHY): inactive; negative | mutagenic call (Test System: UDS RAT HEPATOCYTES, Strain/Indicator: THY INCORP, Metabolic Activation: NONE, Method: AUTORADIOGRAPHY): inactive; negative

O=C1OCC(C(Cl)Cl)=C1Cl
mutagenic call [2]: inactive; negative | mutagenic call (Test System: AMES SALMONELLA TYPHIMURIUM, Strain/Indicator: TA98, Metabolic Activation: RAT, LIVER, S-9, AROCLOR 1254, Method: STANDARD PLATE): inactive; negative | mutagenic call (Test System: AMES SALMONELLA TYPHIMURIUM, Strain/Indicator: TA102, Metabolic Activation: NONE, Method: STANDARD PLATE): active; positive | mutagenic call (Test System: AMES SALMONELLA TYPHIMURIUM, Strain/Indicator: TA102, Metabolic Activation: RAT, LIVER, S-9, AROCLOR 1254, Method: STANDARD PLATE): inactive; negative

Cn1c(NO)nc2c3cccnc3ccc21
mutagenic call (Test System: AMES SALMONELLA TYPHIMURIUM, Strain/Indicator: TA98(NR), Metabolic Activation: NADPH, Method: STANDARD PLATE): active; positive | mutagenic call (Test System: AMES SALMONELLA TYPHIMURIUM, Strain/Indicator: TA98(NR), Metabolic Activation: NONE, Method: STANDARD PLATE): active; positive | mutagenic call (Test System: AMES SALMONELLA TYPHIMURIUM, Strain/Indicator: TA98(NR), Metabolic Activation: RAT, LIVER, MICROSOMES, NADPH, Method: STANDARD PLATE): active; positive | mutagenic call (Test System: AMES SALMONELLA TYPHIMURIUM, Strain/Indicator: TA98(NR), Metabolic Activation: RAT, LIVER, MICROSOMES, Method: STANDARD PLATE): active; positive | mutagenic call (Test System: AMES SALMONELLA TYPHIMURIUM, Strain/Indicator: TA98(NR), Method: STANDARD PLATE): active; positive | mutagenic call [2]: active; positive

CCC(C)c1ccccc1OC(=O)N(C)N=O (stereo unspecified)
mutagenic call [3]: active; positive

CC(C)c1ccccc1OC(=O)N(C)N=O
mutagenic call [3]: active; positive

CC(O)CN1CC(C)OC1=O (stereo unspecified)
mutagenic call (Test System: AMES SALMONELLA TYPHIMURIUM, Strain/Indicator: TA98, Metabolic Activation: HAMSTER, LIVER, S-9, AROCLOR 1254 (10%), Method: STANDARD PLATE): inactive; negative | mutagenic call [2]: inactive; negative | mutagenic call (Test System: AMES SALMONELLA TYPHIMURIUM, Strain/Indicator: TA98, Metabolic Activation: RAT, LIVER, S-9, AROCLOR 1254 (10%), Method: STANDARD PLATE): inactive; negative | mutagenic call (Test System: AMES SALMONELLA TYPHIMURIUM, Strain/Indicator: TA100, Metabolic Activation: HAMSTER, LIVER, S-9, AROCLOR 1254 (10%), Method: STANDARD PLATE): inactive; negative | mutagenic call [1]: inactive; negative | mutagenic call (Test System: AMES SALMONELLA TYPHIMURIUM, Strain/Indicator: TA100, Metabolic Activation: RAT, LIVER, S-9, AROCLOR 1254 (10%), Method: STANDARD PLATE): inactive; negative | mutagenic call (Test System: AMES SALMONELLA TYPHIMURIUM, Strain/Indicator: TA1535, Metabolic Activation: HAMSTER, LIVER, S-9, AROCLOR 1254 (10%), Method: STANDARD PLATE): inactive; negative | mutagenic call (Test System: AMES SALMONELLA TYPHIMURIUM, Strain/Indicator: TA1535, Metabolic Activation: NONE, Method: STANDARD PLATE): inactive; negative | mutagenic call (Test System: AMES SALMONELLA TYPHIMURIUM, Strain/Indicator: TA1535, Metabolic Activation: RAT, LIVER, S-9, AROCLOR 1254 (10%), Method: STANDARD PLATE): inactive; negative | mutagenic call (Test System: AMES SALMONELLA TYPHIMURIUM, Strain/Indicator: TA1537, Metabolic Activation: HAMSTER, LIVER, S-9, AROCLOR 1254 (10%), Method: STANDARD PLATE): inactive; negative | mutagenic call (Test System: AMES SALMONELLA TYPHIMURIUM, Strain/Indicator: TA1537, Metabolic Activation: NONE, Method: STANDARD PLATE): inactive; negative | mutagenic call (Test System: AMES SALMONELLA TYPHIMURIUM, Strain/Indicator: TA1537, Metabolic Activation: RAT, LIVER, S-9, AROCLOR 1254 (10%), Method: STANDARD PLATE): inactive; negative | mutagenic call (Test System: AMES SALMONELLA TYPHIMURIUM, Strain/Indicator: TA1538, Metabolic Activation: HAMSTER, LIVER, S-9, AROCLOR 1254 (10%), Method: STANDARD PLATE): inactive; negative | mutagenic call (Test System: AMES SALMONELLA TYPHIMURIUM, Strain/Indicator: TA1538, Metabolic Activation: NONE, Method: STANDARD PLATE): inactive; negative | mutagenic call (Test System: AMES SALMONELLA TYPHIMURIUM, Strain/Indicator: TA1538, Metabolic Activation: RAT, LIVER, S-9, AROCLOR 1254 (10%), Method: STANDARD PLATE): inactive; negative | mutagenic call (Test System: MOUSE LYMPHOMA, Strain/Indicator: L5178Y (TK+/TK-), Metabolic Activation: NONE, Method: SUSPENSION/PLATE): active; positive. reevaluation of results: positive | mutagenic call (Test System: MOUSE LYMPHOMA, Strain/Indicator: L5178Y (TK+/TK-), Metabolic Activation: RAT, LIVER, S-9, AROCLOR 1254, Method: SUSPENSION/PLATE): active; positive. reevaluation of results: equivocal
